PubChem BioAssay AID1963827 (Molecular Pharmacology Branch, DTP, NCI, 2024)

System: 994946-033-R-J1-PDC complex spheroid viability
Assay: Anticancer human tumor 994946-033-R-J1-PDC patient-derived melanoma cell line growth inhibition [POLQ]
Conditions: for IC50: curve of first compound; for viability, T/C: stronger effect = lower value
Summary of the method: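 Growth inhibition in 3D: complex spheroids (tumor PDC, HUVEC, MSC) treated with POLQ inhibitor combinations; where Cmax unknown, highest tested concentration 10 microM, except SN-38 at 1 microM.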

[1] = second compound 0.0316 µM, first compound 0.0316 µM
[2] = second compound 0.0316 µM, first compound 0.1 µM
[3] = second compound 0.0316 µM, first compound 0.316 µM
[4] = second compound 0.0316 µM, first compound 1 µM
[5] = second compound 0.0316 µM, first compound 3.16 µM
[6] = second compound 0.0316 µM, first compound 10 µM
[7] = second compound 0.1 µM, first compound 0.0316 µM
[8] = second compound 0.1 µM, first compound 0.1 µM
[9] = second compound 0.1 µM, first compound 0.316 µM
[10] = second compound 0.1 µM, first compound 1 µM
[11] = second compound 0.1 µM, first compound 3.16 µM
[12] = second compound 0.1 µM, first compound 10 µM
[13] = second compound 0.316 µM, first compound 0.0316 µM
[14] = second compound 0.316 µM, first compound 0.1 µM
[15] = second compound 0.316 µM, first compound 0.316 µM
[16] = second compound 0.316 µM, first compound 1 µM
[17] = second compound 0.316 µM, first compound 3.16 µM
[18] = second compound 0.316 µM, first compound 10 µM
[19] = second compound 1 µM, first compound 0.0316 µM
[20] = second compound 1 µM, first compound 0.1 µM
[21] = second compound 1 µM, first compound 0.316 µM
[22] = second compound 1 µM, first compound 1 µM
[23] = second compound 1 µM, first compound 3.16 µM
[24] = second compound 1 µM, first compound 10 µM
[25] = second compound 3.16 µM, first compound 0.0316 µM
[26] = second compound 3.16 µM, first compound 0.1 µM
[27] = second compound 3.16 µM, first compound 0.316 µM
[28] = second compound 3.16 µM, first compound 1 µM
[29] = second compound 3.16 µM, first compound 3.16 µM
[30] = second compound 3.16 µM, first compound 10 µM
[31] = second compound 10 µM, first compound 0.0316 µM
[32] = second compound 10 µM, first compound 0.1 µM
[33] = second compound 10 µM, first compound 0.316 µM
[34] = second compound 10 µM, first compound 1 µM
[35] = second compound 10 µM, first compound 3.16 µM
[36] = second compound 10 µM, first compound 10 µM
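Note: spheroids exposed to drugs for 7 days.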
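Throughout, for viability, T/C: 100% = DMSO vehicle treated spheroids.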

Question: With `C=CC(=O)N1CCN(c2nc(=O)n(-c3c(C)ccnc3C(C)C)c3nc(-c4c(O)cccc4F)c(F)cc23)C(C)C1` (centres undefined) + Nc1ccc(C#CCN(C(=O)Cc2ncc(C(F)(F)F)cc2C(F)(F)F)c2ccc(F)cc2)nn1 as the molecule, how does the IC50 (second compound 0.0316 µM) read?
Answer: Its IC50 is greater than 10 µM.

Question: What about the IC50 (second compound 0.1 µM) of the same molecule?
Answer: The IC50 was greater than 10 µM.

Question: And the IC50 (second compound 0.316 µM)?
Answer: Its IC50 is greater than 10 µM.

Question: What about the IC50 (second compound 1 µM) of the same molecule?
Answer: Its IC50 is greater than 10 µM.

Question: What about the IC50 (second compound 3.16 µM) of the same molecule?
Answer: Its IC50 is greater than 10 µM.

Question: What about the IC50 (second compound 10 µM) of the same molecule?
Answer: The IC50 was greater than 10 µM.

Question: And the viability, T/C [1]?
Answer: Its viability, T/C is 92.1%.

Question: And the viability, T/C [2]?
Answer: The viability, T/C was 94.9%.

Question: What about the viability, T/C [3] of the same molecule?
Answer: The viability, T/C was 73.3%.

Question: What about the viability, T/C [4] of the same molecule?
Answer: The viability, T/C was 119%.

Question: What about the viability, T/C [5] of the same molecule?
Answer: The viability, T/C was 130%.

Question: And the viability, T/C [6]?
Answer: Its viability, T/C is 86.9%.

Question: What about the viability, T/C [7] of the same molecule?
Answer: The viability, T/C was 102%.

Question: What about the viability, T/C [8] of the same molecule?
Answer: Its viability, T/C is 108%.

Question: What about the viability, T/C [9] of the same molecule?
Answer: The viability, T/C was 75.2%.

Question: And the viability, T/C [10]?
Answer: The viability, T/C was 119%.

Question: What about the viability, T/C [11] of the same molecule?
Answer: Its viability, T/C is 74.6%.

Question: What about the viability, T/C [12] of the same molecule?
Answer: Its viability, T/C is 70.7%.

Question: And the viability, T/C [13]?
Answer: The viability, T/C was 104%.

Question: What about the viability, T/C [14] of the same molecule?
Answer: Its viability, T/C is 52.8%.

Question: What about the viability, T/C [15] of the same molecule?
Answer: Its viability, T/C is 112%.

Question: And the viability, T/C [16]?
Answer: The viability, T/C was 110%.

Question: What about the viability, T/C [17] of the same molecule?
Answer: The viability, T/C was 103%.

Question: And the viability, T/C [18]?
Answer: Its viability, T/C is 73.7%.

Question: And the viability, T/C [19]?
Answer: The viability, T/C was 94.2%.

Question: What about the viability, T/C [20] of the same molecule?
Answer: Its viability, T/C is 125%.

Question: What about the viability, T/C [21] of the same molecule?
Answer: The viability, T/C was 108%.

Question: And the viability, T/C [22]?
Answer: Its viability, T/C is 102%.

Question: And the viability, T/C [23]?
Answer: Its viability, T/C is 130%.

Question: And the viability, T/C [24]?
Answer: The viability, T/C was 122%.

Question: And the viability, T/C [25]?
Answer: The viability, T/C was 80.7%.

Question: And the viability, T/C [26]?
Answer: Its viability, T/C is 112%.

Question: And the viability, T/C [27]?
Answer: Its viability, T/C is 83.8%.

Question: And the viability, T/C [28]?
Answer: The viability, T/C was 119%.

Question: And the viability, T/C [29]?
Answer: The viability, T/C was 118%.

Question: And the viability, T/C [30]?
Answer: Its viability, T/C is 98.4%.

Question: What about the viability, T/C [31] of the same molecule?
Answer: The viability, T/C was 110%.

Question: What about the viability, T/C [32] of the same molecule?
Answer: Its viability, T/C is 117%.

Question: And the viability, T/C [33]?
Answer: Its viability, T/C is 110%.

Question: What about the viability, T/C [34] of the same molecule?
Answer: Its viability, T/C is 105%.

Question: What about the viability, T/C [35] of the same molecule?
Answer: The viability, T/C was 120%.

Question: What about the viability, T/C [36] of the same molecule?
Answer: Its viability, T/C is 116%.

Question: Which results are given for `CCc1cc2c(N3CCc4c(cc(Cn5ccnc5)cc4-c4cn(C)nc4C(F)(F)F)C3=O)cc(C)nc2c(OC)n1` + Nc1ccc(C#CCN(C(=O)Cc2ncc(C(F)(F)F)cc2C(F)(F)F)c2ccc(F)cc2)nn1?
Answer: IC50 (second compound 0.0316 µM): 8.52 µM; IC50 (second compound 0.1 µM): > 10 µM; IC50 (second compound 0.316 µM): > 10 µM; IC50 (second compound 1 µM): > 10 µM; IC50 (second compound 3.16 µM): > 10 µM; IC50 (second compound 10 µM): > 10 µM; viability, T/C [1]: 81.9%; viability, T/C [2]: 107%; viability, T/C [3]: 72.6%; viability, T/C [4]: 68.3%; viability, T/C [5]: 103%; viability, T/C [6]: 44%; viability, T/C [7]: 78.7%; viability, T/C [8]: 102%; viability, T/C [9]: 94.4%; viability, T/C [10]: 93%; viability, T/C [11]: 71.2%; viability, T/C [12]: 54.3%; viability, T/C [13]: 73%; viability, T/C [14]: 79.8%; viability, T/C [15]: 75.5%; viability, T/C [16]: 87%; viability, T/C [17]: 64%; viability, T/C [18]: 89.1%; viability, T/C [19]: 98.6%; viability, T/C [20]: 71.5%; viability, T/C [21]: 89.5%; viability, T/C [22]: 51.8%; viability, T/C [23]: 78.5%; viability, T/C [24]: 72.2%; viability, T/C [25]: 93.4%; viability, T/C [26]: 84.3%; viability, T/C [27]: 81.9%; viability, T/C [28]: 65.7%; viability, T/C [29]: 86.5%; viability, T/C [30]: 65.5%; viability, T/C [31]: 107%; viability, T/C [32]: 96.1%; viability, T/C [33]: 106%; viability, T/C [34]: 89.2%; viability, T/C [35]: 69.9%; viability, T/C [36]: 49.9%
